Assay [1] deals with T1, GST-tagged KRAS-G12D (2-169) (Homo sapiens, UniProt P01116, G12D).
T1 construct: GST-tagged KRAS-G12D (2-169, Reaction Biology, MSC-11-539); purchased Reaction Biology MSC-11-539 (KRAS G12D); MSC-11-502 (SOS1cat)
The experiment in a line: Nucleotide exchange assay (NEA), SOS-mediated, HTRF, KRAS G12D. Particulars: Table 4; IC50 extracted at 30 min. The assay is classed as biochemical. The gist of the method: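 IC50 values come from 4-parameter fits at the 30 min time point of an SOS-driven exchange read by HTRF, normalised to DMSO (0%) and SOS-free blank (100%). Final reaction: 5 nM GST-KRAS-G12D (2-169), 20 nM SOScat, 150 nM fluorescent GTP-DY-647P1, after 1 h RT compound preincubation with KRAS and Tb-cryptate anti-GST.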
(In general: In TR-FRET formats the signal depends on donor and acceptor labels being close together.)

In assay [2] the test system is AGS cells (KRAS G12D), phospho-ERK. Briefly: pERK In Cell Western (ICW) assay (Method B), AGS cells. The format is cell-based. Particulars: Homo sapiens, Table 4, pERK, 3 hours, read-out: ICW-AGS. The method, boiled down: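 GP2D (10,000 cells/well) and AGS (5,000 cells/well) cells were treated for 3 h at 37 °C with a 10-point, ½-log dilution series (top […]). They were then fixed and immunostained for phospho-ERK. pERK signal was normalised to DRAQ5 and expressed as % of DMSO, with IC50 from a 4-parameter fit.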

A value given as a limit tells only on which side of the number the result lay.

T1 sequence (P01116 2-169 isoform P01116-2 G12D): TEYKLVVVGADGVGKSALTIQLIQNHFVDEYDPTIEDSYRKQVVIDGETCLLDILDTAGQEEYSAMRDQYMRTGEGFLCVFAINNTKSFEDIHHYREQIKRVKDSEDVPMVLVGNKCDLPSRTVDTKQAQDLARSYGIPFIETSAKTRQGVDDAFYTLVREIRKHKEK

For `Cc1noc(-c2cc3n(n2)CCCN(c2nc(OC[C@@]45CCCN4C[C@H](F)C5)nc(N4CC5(CCc6sc(N)c(C#N)c65)C4)c2C#N)C3)n1` [Compound 16, 2-amino-1′-[5-cyano-6-[2-(3-methyl-1,2,4-oxadiazol-5-yl)-4,6,7,8-tetrahydropyrazolo[1,5-a][1,4]diazepin-5-yl]-2-[[(2R,8S)-2-fluoro-1,2,3,5,6,7-hexahydropyrrolizin-8-yl]methoxy]pyrimidin-4-yl]spiro[5,6-dihydrocyclopenta[b]thiophene-4,3′-azetidine]-3-carbonitrile], the IC50 in assay [1] was < 10 nM; in assay [2], 100 to 1000 nM.

In the case of `CN(C)CC1(COc2nc(N3CCCn4nc(C(=O)N(C)C)c(Cl)c4C3)c(C#N)c(N3CC4(CCc5sc(N)c(C#N)c54)C3)n2)CC1(F)F` (stereo not shown) [Compound 87, 5-[6-(2-amino-3-cyano-spiro[5,6-dihydrocyclopenta[b]thiophene-4,3′-azetidine]-1′-yl)-5-cyano-2-[[1-[(dimethylamino)methyl]-2,2-difluoro-cyclopropyl]methoxy]pyrimidin-4-yl]-3-chloro-N,N-dimethyl-4,6,7,8-tetrahydropyrazolo[1,5-a][1,4]diazepine-2-carboxamide], the values for the IC50 in assay [1] and in assay [2] were < 10 nM and 10 to 100 nM, respectively.

For the compound `CN(C)CC1(COc2nc(N3C[C@H]4CC[C@@H](C3)N4)c(C#N)c(N3CC4(CCc5sc(N)c(C#N)c54)C3)n2)COC1` [Compound 52, 2-amino-1′-[5-cyano-6-[(1R,5S)-3,8-diazabicyclo[3.2.1]octan-3-yl]-2-[[3-[(dimethylamino)methyl]oxetan-3-yl]methoxy]pyrimidin-4-yl]spiro[5,6-dihydrocyclopenta[b]thiophene-4,3′-azetidine]-3-carbonitrile], the values for the IC50 in assay [1] and in assay [2] were < 10 nM and 100 to 1000 nM, respectively.

Regarding `N#Cc1c(N2C[C@H]3CC[C@@H](C2)N3)nc(OCC2(CN3CCOCC3)CC2)nc1N1CC2(CCc3sc(N)nc32)C1` [Compound 23, 4-(2-aminospiro[5,6-dihydrocyclopenta[d]thiazole-4,3′-azetidine]-1′-yl)-2-[[1-(morpholinomethyl)cyclopropyl]methoxy]-6-[(1R,5S)-3,8-diazabicyclo[3.2.1]octan-3-yl]pyrimidine-5-carbonitrile], the values for the IC50 in assay [1] and in assay [2] were < 10 nM and 100 to 1000 nM, respectively.

Regarding `CS(=O)(=O)c1cc2n(n1)CCCN(c1nc(OC[C@@]34CCCN3C[C@H](F)C4)nc(N3CC4(CCc5sc(N)c(C#N)c54)C3)c1C#N)C2` [Compound 21, 2-amino-1′-[5-cyano-2-[[(2R,8S)-2-fluoro-1,2,3,5,6,7-hexahydropyrrolizin-8-yl]methoxy]-6-(2-methylsulfonyl-4,6,7,8-tetrahydropyrazolo[1,5-a][1,4]diazepin-5-yl)pyrimidin-4-yl]spiro[5,6-dihydrocyclopenta[b]thiophene-4,3′-azetidine]-3-carbonitrile], the IC50 in assay [1] is < 10 nM; in assay [2] it was 100 to 1000 nM.

In the case of `N#Cc1c(N2CCCCCC2)nc(OC[C@@]23CCCN2C[C@H](F)C3)nc1N1CC2(CCc3sc(N)c(C#N)c32)C1` [Compound 19, 2-amino-1′-[6-(azepan-1-yl)-5-cyano-2-[[(2R)-2-fluoro-1,2,3,5,6,7-hexahydropyrrolizin-8-yl]methoxy]pyrimidin-4-yl]spiro[5,6-dihydrocyclopenta[b]thiophene-4,3′-azetidine]-3-carbonitrile], the IC50 is 10 to 100 nM in assay [1] and 1000 to 10000 nM in assay [2].

`N#Cc1c(N2CCCC(C#N)CC2)nc(OC[C@@]23CCCN2C[C@H](F)C3)nc1N1CC2(CCc3sc(N)c(C#N)c32)C1` (stereo partly drawn) [Compound 33, 2-amino-1′-[5-cyano-6-(4-cyanoazepan-1-yl)-2-[[(2R,8S)-2-fluoro-1,2,3,5,6,7-hexahydropyrrolizin-8-yl]methoxy]pyrimidin-4-yl]spiro[5,6-dihydrocyclopenta[b]thiophene-4,3′-azetidine]-3-carbonitrile]: the results for the IC50 in assay [1] and in assay [2] were 10 to 100 nM and 1000 to 10000 nM, respectively.

Consider `N#Cc1c(N2C[C@H]3CC[C@@H](C2)N3)nc(OCC2(CN3CCC(F)(F)CC3)CC2)nc1N1CC2(CCc3sc(N)c(C#N)c32)C1` [Compound 34, 2-amino-1′-[5-cyano-6-(3,8-diazabicyclo[3.2.1]octan-3-yl)-2-[[1-[(4,4-difluoro-1-piperidyl)methyl]cyclopropyl]methoxy]pyrimidin-4-yl]spiro[5,6-dihydrocyclopenta[b]thiophene-4,3′-azetidine]-3-carbonitrile], for which the IC50 in assay [1] is < 10 nM; in assay [2], 10 to 100 nM.

For `N#Cc1c(N)sc2c1C1(CC2)CN(c2nc(OC[C@@]34CCCN3C[C@H](F)C4)nc(N3C[C@H]4CC[C@@H](C3)N4)c2F)C1` [Compound 15, 2-amino-1′-[6-(3,8-diazabicyclo[3.2.1]octan-3-yl)-5-fluoro-2-[[(2R,8S)-2-fluoro-1,2,3,5,6,7-hexahydropyrrolizin-8-yl]methoxy]pyrimidin-4-yl]spiro[5,6-dihydrocyclopenta[b]thiophene-4,3′-azetidine]-3-carbonitrile], the IC50 was < 10 nM in assay [1] and 10 to 100 nM in assay [2].

Consider `Cc1nc(-c2nn3c(c2Cl)CN(c2nc(OC[C@@]45CCCN4C[C@H](F)C5)nc(N4CC5(CCc6sc(N)c(C#N)c65)C4)c2C#N)CCC3)n(C)n1` [Compound 85, 2-amino-1′-[6-[3-chloro-2-(2,5-dimethyl-1,2,4-triazol-3-yl)-4,6,7,8-tetrahydropyrazolo[1,5-a][1,4]diazepin-5-yl]-5-cyano-2-[[(2R,8S)-2-fluoro-1,2,3,5,6,7-hexahydropyrrolizin-8-yl]methoxy]pyrimidin-4-yl]spiro[5,6-dihydrocyclopenta[b]thiophene-4,3′-azetidine]-3-carbonitrile], for which the values for the IC50 in assay [1] and in assay [2] were < 10 nM and 100 to 1000 nM, respectively.

For `N#Cc1c(N2C[C@H]3CC[C@@H](C2)N3)nc(OCC2(CN3CCOCC3)CC2)nc1N1CC2(CCCc3sc(N)c(C#N)c32)C1` [Compound 41, 2-amino-1′-[5-cyano-2-[[1-(morpholinomethyl)cyclopropyl]methoxy]-6-[(1R,5S)-3,8-diazabicyclo[3.2.1]octan-3-yl]pyrimidin-4-yl]spiro[6,7-dihydro-5H-benzothiophene-4,3′-azetidine]-3-carbonitrile], the figures for the IC50 in assay [1] and in assay [2] were < 10 nM and 10 to 100 nM, respectively.
